Measurements from PMC10384572, “Marine Meroterpenoids Isolated from Gongolaria abies-marina Induce Programmed Cell Death in Naegleria fowleri” (Pharmaceuticals, 2023).
Like-named read-outs stand apart in the source and are kept apart here.

How the values were obtained:
[1] = In vitro cytotoxicity against murine macrophages (alamarBlue); format: cell-based; conditions: mouse, J774A.1 murine macrophages (ATCC TIB-67), murine macrophages J774A.1, 24 h, mean ± SD
Method: (§1) Murine macrophages from the J774A.1 cell line (ATCC® TIB-67) were maintained in Dulbecco’s Modified Eagle’s medium (DMEM) in order to evaluate the toxicity of the compounds. In addition, 10% (v/v) FBS and 10 μg/mL gentamicin (Sigma-Aldrich, Madrid, Spain) were added to the growth medium. Cells were grown in a 5% CO2 atmosphere at 37 °C.
(§2) For the cytotoxicity assays, the same protocol as detailed in Section 4.4 above was used. Murine macrophages were incubated with serial dilutions of the evaluated compounds at 37 °C in a 5% CO2 atmosphere over 24 h. The obtained data were analyzed as described in the previous section in order to calculate the CC50.
(§3) The in vitro IC50, IC90, and CC50 of the compounds were determined by a non-linear regression with a 95% confidence limit. The SigmaPlot 12.0 software (Systat Sofware Inc., London, UK) was used to perform the data analysis using a paired two-tailed t-test. Values of p < 0.05 were considered significant. The data represent the mean value and the SD of the conducted three different experiments.

N. fowleri ATCC® 30808 = assay: In vitro activity against N. fowleri trophozoites (alamarBlue), strain ATCC 30808; format: cell-based, Naegleria fowleri; conditions: for IC90 / IC50: Naegleria fowleri; for Anti-Naegleria activity (in words): both tested strains of N. fowleri
Method: The in vitro activity against N. fowleri trophozoites was evaluated in two different strains from the American Type Culture Collection (LG Promochem, Barcelona, Spain), ATCC® 30808™ and ATCC® 30215™. Cells were axenically grown in 2% Bactocasitone (w/v) medium (Thermo Fisher Scientific, Madrid, Spain) at 37 °C. Moreover, 10% (v/v) of fetal bovine serum (FBS) 0.3 μg/mL of Penicillin G Sodium Salt and 0.5 mg/mL of Streptomycin sulphate (Sigma-Aldrich, Madrid, Spain) were also added to the Bactocasitone medium.
For these assays, a colorimetric assay was conducted using the alamarBlue® reagent. Briefly, N. fowleri trophozoites were seeded in duplicate in a 96-well microtiter plate. After that, different concentrations of the evaluated meroterpenoids diluted in fresh Bactocasitone were added to the wells. The negative control consisted on the trophozoites incubated with the medium alone. Lastly, the alamarBlue® (Life Technologies, Madrid, Spain) reagent was added. Plates were incubated in slight agitation at 37 °C. After 48 h, the fluorescence of the wells was analyzed in an EnSpire Multimode Plate Reader (Perkin Elmer, Madrid, Spain) using a wavelength of excitation of 570 nm and a wavelength of emission of 585 nm.
In order to calculate the IC50 and IC90, a nonlinear regression analysis with a 95% confidence limit was performed.
as §3

[2] = system: N. fowleri ATCC® 30808 trophozoites; assay: Plasma membrane permeability (SYTOX Green); format: cell-based, Naegleria fowleri; conditions: IC90 of compound, 24 h
Method: The evaluation of the programmed cell death induction by the meroterpenoids was performed in the ATCC® 30808™ N. fowleri trophozoites. Cells were incubated over 24 h with the IC90 (Table 1) of the compounds at 37 °C. In these experiments, the presence of different metabolic events which are characteristics of the programmed cell death process were evaluated. For this, five different apoptosis events marker kits (the Hoechst 33342/Propidium Iodide, SYTOX™ Green kit, CellROX® Deep Reagent, JC-1 Mitochondrial Membrane Potential Detection Kit, and the Celltiter-Glo® Luminescent Cell Viability Assay) were used according to manufacturer’s instructions. Furthermore, the percentage of stained cells was determined after incubating the treated and non-treated cells with the stains.
The evaluation of the damage in the cell membrane permeability was conducted with the SYTOX Green assay (Life Technologies, Madrid, Spain). Amoebae were incubated with the molecules over 24 h at 37 °C. An EVOS™ M5000 Imaging System (Invitrogen by Thermo Fisher Scientific) was used to observe the trophozoites. Cells with compromised plasma membrane permeability show bright green fluorescence as the stain reaches the nucleus. However, no fluorescence is observed in negative control cells.
In the PCD assays, the number of stained and unstained cells was measured after the performance of the experiments. Regarding the JC-1 Mitochondrial Membrane Potential assays, the ratio between the emitted red fluorescence (at 595 nm) and green fluorescence (at 535 nm) was determined. For each kit, images (×40) with at least 80 cells were selected and analyzed. […] The graphs illustrate the mean value ± SD of three different tests. Finally, a one-way analysis of variance (ANOVA) was assessed to determine the statistical differences between the treated cells and the negative control amoebae, ** p < 0.01; *** p < 0.001; **** p < 0.0001 significant differences.

[3] = system: N. fowleri ATCC® 30808 trophozoites; assay: Chromatin condensation detection (Hoechst 33342/propidium iodide); format: cell-based, Naegleria fowleri; conditions: IC90 of compound, 24 h
Method: The evaluation of the programmed cell death induction by the meroterpenoids was performed in the ATCC® 30808™ N. fowleri trophozoites. Cells were incubated over 24 h with the IC90 (Table 1) of the compounds at 37 °C. In these experiments, the presence of different metabolic events which are characteristics of the programmed cell death process were evaluated. For this, five different apoptosis events marker kits (the Hoechst 33342/Propidium Iodide, SYTOX™ Green kit, CellROX® Deep Reagent, JC-1 Mitochondrial Membrane Potential Detection Kit, and the Celltiter-Glo® Luminescent Cell Viability Assay) were used according to manufacturer’s instructions. Furthermore, the percentage of stained cells was determined after incubating the treated and non-treated cells with the stains. For the chromatin condensation assay, the Hoechst 33342 and the PI (Life Technologies, Madrid, Spain) were used. The images were captured in the EVOS™ M5000 Imaging System (Invitrogen by Thermo Fisher Scientific). A concentration of 5 × 10^5 cell/mL was seeded and incubated with compounds over 24 h. Three different cell population can be distinguished with this kit. Firstly, healthy cells will barely show blue fluorescence whereas in the presence of condensed chromatin an intense blue fluorescence corresponding to the Hoechst 33342 stain will be observable. Finally, dead cells will show red fluorescence due to the linkage between the nucleus and the PI. In the PCD assays, the number of stained and unstained cells was measured after the performance of the experiments. Regarding the JC-1 Mitochondrial Membrane Potential assays, the ratio between the emitted red fluorescence (at 595 nm) and green fluorescence (at 535 nm) was determined. For each kit, images (×40) with at least 80 cells were selected and analyzed. […] The graphs illustrate the mean value ± SD of three different tests. Finally, a one-way analysis of variance (ANOVA) was assessed to determine the statistical differences between the treated cells and the negative control amoebae, ** p < 0.01; *** p < 0.001; **** p < 0.0001 significant differences.

[4] = system: Murine macrophages J774A.1 (ATCC® TIB-67); assay: In vitro cytotoxicity against murine macrophages (alamarBlue); format: cell-based; conditions: murine macrophages J774A.1, 24 h, mean ± SD
Method: as §1, §2, §3

[5] = ATCC30808, N. fowleri trophozoites, 48 h, alamarBlue, mean ± SD
[6] = ATCC30808, N. fowleri trophozoites, 48 h, alamarBlue, mean ± SD, read-out: IC50 ATCC® 30808
[7] = ATCC 30215 / ATCC 30808, range over the named compounds and both strains (ATCC 30808 and ATCC 30215), read-out: IC50 against N. fowleri

| SMILES | CC50 at 24 h [1] [µM] | CC90 at 24 h [1] [µM] | IC90 (N. fowleri ATCC® 30808; [5]) [µM] | IC50 (N. fowleri ATCC® 30808; [6]) [µM] | Anti-Naegleria activity (in words) (N. fowleri ATCC® 30808) | Plasma membrane permeability damage (SYTOX green) [2] | Apoptotic phase suggested by Hoechst/PI staining [3] | Chromatin condensation (Hoechst 33342 stain) [3] | Propidium iodide (PI) red fluorescence [3] | IC50 (N. fowleri ATCC® 30808; [7]) [µM] | CC50 [4] [µM] | Selectivity index (SI) (N. fowleri ATCC® 30808; cytotoxicity in murine macrophages versus activity against N. fowleri) |
| --- | --- | --- | --- | --- | --- | --- | --- | --- | --- | --- | --- | --- |
| COc1c(C)cc(O)cc1C/C=C(\C)CC(=O)C/C(C)=C/CC[C@@H](C)C(=O)/C=C/C(C)(C)O [Gongolarone B (1), gongolarone B] | 25.6 ± 4.16 | 72.9 ± 5.94 | 58 ± 1.73 | 21.9 ± 1.6 | active | plasma membrane permeability damage | late apoptotic phase | induced DNA condensation | showed red fluorescence |  |  |  |
| COc1c(C)cc(O)cc1C/C=C(\C)CC(=O)/C=C(/C)CCC[C@@H](C)C(=O)/C=C/C(C)(C)O [6Z-1′Methoxyamentadione (2), 6Z-1′-methoxyamentadione] | 26.6 ± 4.03 | 67.2 ± 6.32 | 55.3 ± 8.28 | 20.4 ± 4.07 | active | plasma membrane permeability damage | late apoptotic phase | induced DNA condensation | showed red fluorescence | 13.3 to 20.4 |  |  |
| COc1c(C)cc(O)cc1C/C=C(\C)CC(=O)/C=C(\C)CCCC(C)=O [Cystomexicone B (6), cystomexicone B] | > 279 | > 500 | 206 ± 16.6 | 58.9 ± 10.1 | active | plasma membrane permeability damage | early apoptotic phase | induced DNA condensation | no red fluorescence |  | > 500 | > 8.5 |
| COc1c(C)cc(O)cc1C/C=C(\C)CC(=O)/C=C(\C)CCC[C@@H](C)C(=O)/C=C/C(C)(C)O [1′Methoxyamentadione (3), 1′-methoxyamentadione] | 26.2 ± 2.25 | 68.7 ± 7.46 | 64.9 ± 6.94 | 19.9 ± 5.27 | active | plasma membrane permeability damage | early apoptotic phase | induced DNA condensation | no red fluorescence | 13.3 to 20.4 |  |  |
